Laboratory results as given in patent publication US20100197604A1, “USE OF PEPTIDE AS A THERAPEUTIC AGENT” (priority 2007, published 2010).

Legend:
[1] = tested on: MRSA; conditions: 5 micrograms per ml
[2] = tested on: Pseudomonas aeruginosa; type: cell-based; conditions: 5 micrograms per ml
[3] = tested on: Streptococcus pneumoniae; type: cell-based; conditions: 5 micrograms per ml
[4] = tested on: HIV-1IIIB; assay: HIV-1 antiviral assay (CPE reduction, MTS); type: cell-based; conditions: peptide 10 micrograms per ml, 6 days post-infection
[5] = tested on: CEM-SS cells; assay: Cytotoxicity in CEM-SS cells (MTS cell viability); conditions: peptide 10 micrograms per ml
[6] = tested on: HepG2-2.2.15 cells; assay: Cytotoxicity in HepG2-2.2.15 cells (dye uptake); conditions: test peptide 10 micrograms per ml
[7] = tested on: MRC-5 cells (human embryonal lung fibroblasts); conditions: 6 days

SMILES: CC[C@H](C)[C@H](NC(=O)[C@H](Cc1ccc(O)cc1)NC(=O)[C@@H](NC(=O)[C@H](CCCNC(=N)N)NC(=O)[C@@H](N)CC(=O)O)C(C)C)C(=O)N[C@@H](Cc1c[nH]cn1)C(=O)N1CCC[C@H]1C(=O)N[C@@H](Cc1ccccc1)C(=O)O [Angiotensin II]
- % inhibition [1]: 0.0%
- % inhibition [2]: 0.0%
- % inhibition [3]: 100.0%

SMILES: Cc1cn([C@H]2C[C@H](N=[N+]=[N-])[C@@H](CO)O2)c(=O)[nH]c1=O [AZT]
- % CPE reduction in HIV-1 infected CEM-SS cells [4]: 99%
- % Cell viability [5]: 97%

SMILES: Nc1ccn([C@@H]2CS[C@H](CO)O2)c(=O)n1 [Compound 3TC, Lamivudine]
- % Cell viability [6]: 95.8%

SMILES: Nc1nc(O)c2ncn(COC(CO)CO)c2n1 [Ganciclovir]
- % Cell viability [7]: 100%
